In patent EP4778933A1 (Chengdu Hyperway Pharmaceuticals Co., Ltd., priority 2023, dated 2025):
Where two headings read alike, the source gives them in different places. Each block holds one compound with its values, some of them ahead of it.

Columns and labels:
[1] = tested on: KRAS G12D-mediated ERK phosphorylation; experiment: Inhibition of KRAS G12D-mediated ERK phosphorylation in AGS cells (in-cell pERK/GAPDH immunofluorescence); assay type: cell-based
Description: Day 1: AGS cells, SW480 cells, NCI H358 cells, HCT116 cells, and KP2 cells were seeded into 384-well cell culture plates and cultured overnight in a 37°C, 5% CO2 incubator.
Day 2: The compounds were added to the plates using Echo550 and incubated for 3 h in a 37°C, 5% CO2 incubator. Then, cells fixed with paraformaldehyde, permeated with methanol and blocked with a blocking solution were added. Finally, a mixed solution of primary antibodies (rabbit anti pERK, mouse anti GAPDH) was added, and the mixture was incubated overnight at 4°C.
Day 3: The mixed solution of primary antibodies was discarded, and a mixed solution of secondary antibodies (goat anti rabbit 800 CW, goat anti mouse 680 RD) was added. The resulting mixture was incubated at room temperature in the dark. Finally, the cell culture plate was washed with PBST, and then inverted for 1 minute of centrifugation. The fluorescence signal values were read with Odyssey CLx.
ERK phosphorylation was calculated according to the following formula: [formula] • Negative control: DMSO • Positive control: 10 µM Reference • IC50 value was fitted and calculated by XLFit 5.0 using the parametric formula. • Y = Bottom+(Top-Bottom)/(1+10^((LogIC50-X)*HillSlope)) • X: log value of compound concentration. • Y: average value of relative expression of p-ERK between replicate wells.

[2] = In vivo pharmacokinetic test in mice; conditions: female BALB/c mice, oral, single dose 30 mg/kg, plasma
Description: Each test compound was administered orally once to female BALB/c mice for pharmacokinetic study. The test compounds were prepared on the day of administration. The oral administration solvent: 50 mM sodium citrate (pH 5.0) + 10% captisol. The oral administration was conducted in a dose of 30 mg/kg. The animals were fasted for 10-14 h before oral administration, and the feeding was resumed 4 h after administration. Pharmacokinetic samples were collected through the orbit. The collection time points were: 15 min, 30 min, 1 h, 2 h, 4 h, 6 h, 8 h and 24 h after administration. Three whole blood samples were collected at each time point, with a collection volume of about 0.2 mL, and anticoagulated with sodium heparin. After blood samples were collected, they were immediately placed on ice and centrifuged within 1 h to isolate plasma (centrifugation conditions: 8000 rpm, 1 min, 2-8°C). The collected plasma was stored in a -20°C refrigerator before analysis. The concentrations of compounds in the plasma samples were determined using an LC-MS/MS analysis method.

[3] = AGS cells, 3 h incubation, read-out: Inhibitory activity on ERK phosphorylation (IC50) AGS-G12D
[4] = Homo sapiens, AGS, 3 h, read-out: Inhibitory activity on ERK phosphorylation (IC50) AGS-G12D, AGS cells, 3 h incubation

IC50 [1, 3]: 24 nM
Structure (SMILES): CC1(O)COCCN(c2nc(OCC34CCCN3C(c3cc(F)c(F)c(F)c3)CC4)nc3c(F)c(-c4cccc5sc(N)c(C#N)c45)c(I)cc23)C1 (single isomer, unassigned) [Example 32, 2-amino-4-[6-iodo-8-fluoro-4-(6-hydroxy-6-methyl-1,4-oxazepan-4-yl)-2-({[3-(3,4,5-trifluorophenyl)-2,3,5,6,7,7a-hexahydro-1H-pyrrolizin-7a-yl]methyl}oxy)quinazolin-7-yl]benzo[b]thiophene-3-carbonitrile]

IC50 [1, 4]: 196 nM
Structure (SMILES): CC1(O)COCCN(c2nc(OCC34CCCN3C(c3cc(F)c(F)c(F)c3)CC4)nc3c(F)c(-c4cccc5sc(N)c(C#N)c45)c(P(C)(C)=O)cc23)C1 (single isomer, unassigned) [Example 33, 2-amino-4-{6-[dimethyl(oxo)-15-methylphosphino]-8-fluoro-4-(6-hydroxy-6-methyl-1,4-oxazepan-4-yl)-2-({[3-(3,4,5-trifluorophenyl)-2,3,5,6,7,7a-hexahydro-1H-pyrrolizin-7a-yl]methyl}oxy)quinazolin-7-yl}benzo[b]thiophene-3-carbonitrile]

IC50 ([1]; Homo sapiens, AGS, 3 h, AGS cells, 3 h incubation, read-out: Inhibitory activity on ERK phosphorylation (IC50) AGS-G12D): 67 nM
Structure (SMILES): N#Cc1c(N)sc2cccc(-c3c(Cl)cc4c(N5CCNOCC5)nc(OCC56CCCN5C(c5cc(F)c(F)c(F)c5)CC6)nc4c3F)c12 (single isomer, unassigned) [Example 34, 2-amino-4-[6-chloro-8-fluoro-4-(1,2,5-oxadiazepan-5-yl)-2-({[3-(3,4,5-trifluorophenyl)-2,3,5,6,7,7a-hexahydro-1H-pyrrolizin-7a-yl]methyl}oxy)quinazolin-7-yl]benzo[b]thiophene-3-carbonitrile]

More lines, now with the values behind:

Structure (SMILES): N#Cc1c(N)sc2c(F)ccc(-c3c(Cl)cc4c(N5CCOCC5)nc(OC[C@@]56CCCN5[C@H](c5cc(F)c(F)c(F)c5)CC6)nc4c3F)c12 (relative stereo) [Example 17]
IC50 ([1]; Homo sapiens, AGS cells, 3 h incubation, read-out: Inhibitory activity on ERK phosphorylation (IC50) AGS-G12D): 41 nM | AUC ([2]; mouse, read-out: AUC): 3990 ng·h/mL | Cmax ([2]; mouse, read-out: Cmax): 1490 ng/mL

Structure (SMILES): CC1(O)COCCN(c2nc(OCC34CCCN3C(c3cc(F)c(F)c(F)c3)CC4)nc3c(F)c(-c4ccc(F)c5sc(N)c(C#N)c45)c(Cl)cc23)C1 (single isomer, unassigned) [Example 9, 2-amino-4-[6-chloro-8-fluoro-4-(6-hydroxy-6-methyl-1,4-oxazepan-4-yl)-2-({[3-(3,4,5-trifluorophenyl)-2,3,5,6,7,7a-hexahydro-1H-pyrrolizin-7a-yl]methyl}oxy)quinazolin-7-yl]-7-fluorobenzo[b]thiophene-3-carbonitrile]
IC50 [1, 3]: 27 nM | AUC ([2]; 30 mg/kg): 5181 ng·h/mL | Cmax ([2]; 30 mg/kg): 1897 ng/mL

Structure (SMILES): CC1(O)COCCN(c2nc(OCC34CCCN3C(c3cc(F)c(F)c(F)c3)CC4)nc3c(F)c(-c4cccc5sc(N)c(C#N)c45)c(I)cc23)C1 (single isomer, unassigned) [Example 30, 2-amino-4-[6-iodo-8-fluoro-4-(6-hydroxy-6-methyl-1,4-oxazepan-4-yl)-2-({[3-(3,4,5-trifluorophenyl)-2,3,5,6,7,7a-hexahydro-1H-pyrrolizin-7a-yl]methyl}oxy)quinazolin-7-yl]benzo[b]thiophene-3-carbonitrile]
IC50 [1, 3]: 94 nM

Structure (SMILES): CC1(O)COCCN(c2nc(OCC34CCCN3C(c3cc(F)c(F)c(F)c3)CC4)nc3c(F)c(-c4cncc5sc(N)c(C#N)c45)c(Cl)cc23)C1 (single isomer, unassigned) [Example 37, 2-amino-4-[6-chloro-8-fluoro-4-(6-hydroxy-6-methyl-1,4-oxazepan-4-yl)-2-({[1-(3,4,5-trifluoropheny 1)octahydrocyclopenta[1,2-a][5]annulen-3a-yl]methyl}oxy)quinazolin-7-yl]thieno[2,3-c]pyridine-3-ca rbonitrile]
IC50 [1, 4]: 193 nM
